In patent US7244692B2, “Substituted benzoylcyclohexane diones for use as herbicides” (Bayer Aktiengesellschaft, priority 1999, dated 2007):
Like-named read-outs stand apart in the source and are kept apart here.

Experiments:
[1] = logP determination by HPLC, reverse-phase column (C 18), EEC Directive 79/831 Annex V.A8; type: physicochemical
Procedure: Temperature: 43° C. • (a) Mobile phases for the determination in the acidic range: 0.1% aqueous phosphoric acid, acetonitrile; linear gradient from 10% acetonitrile to 90% acetonitrile—the corresponding test results in Table 1 are labelled ^a). • (b) Mobile phases for the determination in the neutral range: 0.01 molar aqueous phosphate buffer solution, acetonitrile; linear gradient from 10% acetonitrile to 90% acetonitrile—the corresponding test results in Table 1 are labelled ^b).

weeds [2] = assay: Pre-Emergence Test (Example A); type: in vivo; conditions: soil sprayed 24 hours after sowing, rated after three weeks
Procedure: (§1) • Solvent: 5 parts by weight of acetone • Emulsifier: 1 part by weight of alkylaryl polyglycol ether
(§2) To produce a suitable preparation of active compound, 1 part by weight of active compound is mixed with the stated amount of solvent, the stated amount of emulsifier is added and the concentrate is diluted with water to the desired concentration.
Seeds of the test plants are sown in normal soil. After 24 hours, the soil is sprayed with the preparation of active compound such that the particular amount of active compound desired is applied per unit area. The concentration of active compound in the spray liquor is chosen such that the particular amount of active compound desired is applied in 1000 litres of water per hectare.
After three weeks, the degree of damage to the plants is rated in % damage in comparison to the development of the untreated control. The figures denote: • 0%=no effect (like untreated control) • 100%=total destruction

weeds [3] = assay: Post-Emergence Test (Example B); type: in vivo; conditions: test plants of 5-15 cm sprayed, rated after three weeks
Procedure: as §1, §2
Test plants of a height of 5-15 cm are sprayed with the preparation of active compound such that the particular amounts of active compound desired are applied per unit area. The concentration of the spray liquor is chosen such that the particular amounts of active compound desired are applied in 1000 l of water/ha.
After three weeks, the degree of damage to the plants is rated in % damage in comparison to the development of the untreated control.
The figures denote: • 0%=no effect (like untreated control) • 100%=total destruction

[4] = labelled a): acidic range, 0.1% aqueous phosphoric acid/acetonitrile, linear gradient 10% to 90% acetonitrile, 43° C.
[5] = no a)/b) label printed, mobile phase not given

Structure (SMILES)	logP [1]	activity against weeds (degree of damage) (weeds [3])	logP [1, 4]	further results
CCCN1CCNC1=O [(VI-5)]	0.55^a)			
CCCN1CCCNC1=O [(VI-15)]	logP = 0.76^a)			
CCN1CCCCNC1=O [(VI-30)]	logP = 1.09			
CN1CCN(Cc2c(Cl)ccc(C(=O)C3C(=O)CCCC3=O)c2Cl)C1=O [Example 1, 2-[2,4-dichloro-3-[(3-methyl-2-oxo-imidazolidin-1-yl)-methyl]-benzoyl]-1,3-cyclohexanedione]		strong activity against weeds		activity against weeds (degree of damage) (weeds [2]): strong activity against weeds
CC1CC(=O)C(C(=O)c2ccc(Cl)c(CN3CCCN(C)C3=O)c2Cl)C(=O)C1 (stereo not shown) [Example 2]		strong activity against weeds	logP = 2.55^a)	activity against weeds (degree of damage) (weeds [2]): strong activity against weeds
CN1CCCN(Cc2c(Cl)ccc(C(=O)C3C(=O)CC(C)(C)CC3=O)c2Cl)C1=O [Example 3]		strong activity against weeds	logP = 2.79^a)	activity against weeds (degree of damage) (weeds [2]): strong activity against weeds
CN1CCCN(Cc2c(Cl)ccc(C(=O)C3C(=O)CCC(C)(C)C3=O)c2Cl)C1=O (stereo not shown) [Example 4]		strong activity against weeds	logP = 2.89^a)	activity against weeds (degree of damage) (weeds [2]): strong activity against weeds
CC(C)C1CC(=O)C(C(=O)c2ccc(Cl)c(CN3CCCN(C)C3=O)c2Cl)C(=O)C1 (stereo not shown) [Example 5]		strong activity against weeds	logP = 3.22^a)	
CN1CCCN(Cc2c(Cl)ccc(C(=O)C3C(=O)CC(c4ccccc4)CC3=O)c2Cl)C1=O (stereo not shown) [Example 6]		strong activity against weeds	logP = 3.21^a)	
CC1CC(=O)C(C(=O)c2ccc(Cl)c(CN3CCN(C)C3=O)c2Cl)C(=O)C1 (stereo not shown) [Example 7]		strong activity against weeds	logP = 2.43^a)	activity against weeds (degree of damage) (weeds [2]): strong activity against weeds
CN1CCN(Cc2c(Cl)ccc(C(=O)C3C(=O)CC(C)(C)CC3=O)c2Cl)C1=O [Example 8]		strong activity against weeds	logP = 2.67^a)	activity against weeds (degree of damage) (weeds [2]): strong activity against weeds
CN1CCN(Cc2c(Cl)ccc(C(=O)C3C(=O)CCC(C)(C)C3=O)c2Cl)C1=O (stereo not shown) [Example 9]		strong activity against weeds	logP = 2.75^a)	activity against weeds (degree of damage) (weeds [2]): strong activity against weeds
CC(C)C1CC(=O)C(C(=O)c2ccc(Cl)c(CN3CCN(C)C3=O)c2Cl)C(=O)C1 (stereo not shown) [Example 10]		strong activity against weeds	logP = 3.09^a)	
CN1CCN(Cc2c(Cl)ccc(C(=O)C3C(=O)CC(c4ccccc4)CC3=O)c2Cl)C1=O (stereo not shown) [Example 11]		strong activity against weeds	logP = 3.10^a)	
CCN1CCN(Cc2c(Cl)ccc(C(=O)C3C(=O)CC(C)CC3=O)c2Cl)C1=O (stereo not shown) [Example 12]		strong activity against weeds	logP = 2.71^a)	activity against weeds (degree of damage) (weeds [2]): strong activity against weeds
CCN1CCN(Cc2c(Cl)ccc(C(=O)C3C(=O)CCCC3=O)c2Cl)C1=O [Example 13]		strong activity against weeds	logP = 2.37^a)	activity against weeds (degree of damage) (weeds [2]): strong activity against weeds
CCN1CCN(Cc2c(Cl)ccc(C(=O)C3C(=O)CC(C)(C)CC3=O)c2Cl)C1=O [Example 14]		strong activity against weeds	logP = 2.96^a)	
CCN1CCN(Cc2c(Cl)ccc(C(=O)C3C(=O)CCC(C)(C)C3=O)c2Cl)C1=O (stereo not shown) [Example 15]	logP = 3.07^a)			
CCN1CCN(Cc2c(Cl)ccc(C(=O)C3C(=O)CC(C(C)C)CC3=O)c2Cl)C1=O (stereo not shown) [Example 16]		strong activity against weeds	logP = 3.40^a)	
CCN1CCN(Cc2c(Cl)ccc(C(=O)C3C(=O)CC(c4ccccc4)CC3=O)c2Cl)C1=O (stereo not shown) [Example 17]		strong activity against weeds	logP = 3.38^a)	
COc1c(C(=O)C2C(=O)CCCC2=O)ccc(Cl)c1CN1CCCN(C)C1=O [Example 18]		strong activity against weeds	logP = 2.05^a)	activity against weeds (degree of damage) (weeds [2]): strong activity against weeds
COc1c(C(=O)C2C(=O)CCCC2=O)ccc(Cl)c1CN1CCN(C)C1=O [Example 19]	logP = 2.00^a)			
CN1CCN(Cc2c(Cl)ccc(C(=O)C3C(=O)CC4(CCC4)CC3=O)c2Cl)C1=O [Example 20]	logP = 2.83^a)			
CCN1CCN(Cc2c(Cl)ccc(C(=O)C3C(=O)CC4(CCC4)CC3=O)c2Cl)C1=O [Example 21]	logP = 3.15^a)			

Structure (SMILES)	logP [1]	activity against weeds (degree of damage) (weeds [3])	logP [1, 4]	further results
CN1CCN(Cc2c(S(C)(=O)=O)ccc(C(=O)C3C(=O)CCCC3=O)c2Cl)C1=O [Example 22]	logP = 1.70^a)			
CCN1CCN(Cc2c(S(C)(=O)=O)ccc(C(=O)C3C(=O)CCCC3=O)c2Cl)C1=O [Example 23]	logP = 1.91^a)			
CN1CCN(Cc2c(F)ccc(C(=O)C3C(=O)CCCC3=O)c2Cl)C1=O [Example 24]		strong activity against weeds	logP = 1.96^a)	activity against weeds (degree of damage) (weeds [2]): strong activity against weeds
CCN1CCN(Cc2cc(C(F)(F)F)ccc2C(=O)C2C(=O)CCCC2=O)C1=O [Example 25]	logP = 2.68^a)			
CN1CCCN(Cc2c(S(C)(=O)=O)ccc(C(=O)C3C(=O)CCCC3=O)c2Cl)C1=O [Example 41]	logP = 1.73^a)			
CCCN1CCN(Cc2c(Cl)ccc(C(=O)C3C(=O)CCCC3=O)c2Cl)C1=O [Example 46]	logP = 2.69^a)			
CCCCN1CCN(Cc2c(Cl)ccc(C(=O)C3C(=O)CCCC3=O)c2Cl)C1=O [Example 47]	logP = 3.08^a)			
CC(C)CN1CCN(Cc2c(Cl)ccc(C(=O)C3C(=O)CCCC3=O)c2Cl)C1=O [Example 48]	logP = 3.03^a)			
CN1CCCN(Cc2cc(C(F)(F)F)ccc2C(=O)C2C(=O)CCCC2=O)C1=O [Example 49]	logP = 2.59^a)			
CCN1CCN(Cc2c(F)ccc(C(=O)C3C(=O)CCCC3=O)c2Cl)C1=O [Example 50]	logP = 2.18^a)			
CN1CCN(Cc2cc(C(F)(F)F)ccc2C(=O)C2C(=O)CCCC2=O)C1=O [Example 51]	logP = 2.41^a)			
CCN1CCN(Cc2c(Cl)ccc(C(=O)OC)c2Cl)C1=O [IV-2]			logP = 2.26^a)	
CCN1CCN(Cc2c(S(C)(=O)=O)ccc(C(=O)OC)c2Cl)C1=O [IV-3]			logP = 1.55^a)	
COC(=O)c1ccc(S(C)(=O)=O)c(CN2CCN(C)C2=O)c1Cl [IV-4]			logP = 1.55^a)	
COC(=O)c1ccc(Cl)c(CN2CCN(C)C2=O)c1OC [IV-5]			logP = 1.92^a)	
COC(=O)c1ccc(Cl)c(CN2CCCN(C)C2=O)c1Cl [IV-6]			logP = 2.07^a)	
COC(=O)c1ccc(Cl)c(CN2CCCN(C)C2=O)c1OC [IV-10]			logP = 2.03^a)	
CCN1CCN(Cc2cc(C(F)(F)F)ccc2C(=O)OC)C1=O [IV-11]			logP = 2.62^a)	
CCCN1CCN(Cc2c(Cl)ccc(C(=O)OC)c2Cl)C1=O [IV-12]				logP [1, 5]: logP = 2.62
COC(=O)c1ccc(Cl)c(CN2CCN(C(C)C)C2=O)c1Cl [IV-13]				logP [1, 5]: logP = 2.56
CCCCN1CCN(Cc2c(Cl)ccc(C(=O)OC)c2Cl)C1=O [IV-15]				logP [1, 5]: logP = 3.0
COC(=O)c1ccc(Cl)c(CN2CCN(CC(C)C)C2=O)c1Cl [IV-16]				logP [1, 5]: logP = 2.95
COC(=O)c1ccc(S(C)(=O)=O)c(CBr)c1Cl [V-2]	logP = 2.33^a)			
COC(=O)c1ccc(S(C)(=O)=O)cc1CBr [V-6]	logP = 1.87^a)			
